In publication PMC3285443 (European Journal of Pharmaceutical Sciences, 2010):
Converted amounts (≈) assume the structure as drawn. Where two headings read alike, the source gives them in different places.

Assays:
[1] = experimental LogP determination; conditions: for logP at 24 h: 1-octanol / 0.1 M sodium phosphate buffer, pH 7.4
[2] = cassette-dosing oral pharmacokinetic screening in dogs; conditions: dog; for AUC / half-life: female, Labrador retriever, plasma, po, 0.3 mg/kg; for C24/IC50 (ratio of blood concentration over the IC50 with recombinant human sEH after 24 hour): n=1
[3] = compartmental pharmacokinetics after i.v. administration in dogs; conditions: female, Labrador retriever, dog, plasma, iv
[4] = compartmental pharmacokinetics after oral gavage; conditions: female, Labrador retriever, dog, plasma, 0.3 mg/kg
[5] = biological target: T1, recombinant human soluble epoxide hydrolase (Homo sapiens, UniProt P34913); assay: fluorescent assay with CMNPC substrate, recombinant human sEH; assay type: biochemical
T1 sequence (P34913 1-555): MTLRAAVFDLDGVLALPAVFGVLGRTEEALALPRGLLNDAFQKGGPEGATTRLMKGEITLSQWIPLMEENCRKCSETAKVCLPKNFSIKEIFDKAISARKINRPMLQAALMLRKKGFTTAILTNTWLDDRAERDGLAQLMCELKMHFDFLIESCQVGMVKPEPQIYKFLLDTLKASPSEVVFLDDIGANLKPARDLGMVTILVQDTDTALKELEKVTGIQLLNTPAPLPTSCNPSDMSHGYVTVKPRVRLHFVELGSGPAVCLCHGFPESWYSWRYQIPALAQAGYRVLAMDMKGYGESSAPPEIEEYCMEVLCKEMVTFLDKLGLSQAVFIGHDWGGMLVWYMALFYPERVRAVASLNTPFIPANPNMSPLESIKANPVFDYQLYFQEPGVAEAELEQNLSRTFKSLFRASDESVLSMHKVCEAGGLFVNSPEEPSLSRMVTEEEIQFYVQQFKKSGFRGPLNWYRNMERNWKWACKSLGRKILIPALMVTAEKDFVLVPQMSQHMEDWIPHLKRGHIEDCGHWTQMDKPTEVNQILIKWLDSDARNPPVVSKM

[6] = biological target: T2, recombinant murine sEH (Mus musculus, UniProt P34914); assay: fluorescent assay with CMNPC substrate, recombinant mouse sEH; assay type: biochemical
T2 sequence (P34914 1-554): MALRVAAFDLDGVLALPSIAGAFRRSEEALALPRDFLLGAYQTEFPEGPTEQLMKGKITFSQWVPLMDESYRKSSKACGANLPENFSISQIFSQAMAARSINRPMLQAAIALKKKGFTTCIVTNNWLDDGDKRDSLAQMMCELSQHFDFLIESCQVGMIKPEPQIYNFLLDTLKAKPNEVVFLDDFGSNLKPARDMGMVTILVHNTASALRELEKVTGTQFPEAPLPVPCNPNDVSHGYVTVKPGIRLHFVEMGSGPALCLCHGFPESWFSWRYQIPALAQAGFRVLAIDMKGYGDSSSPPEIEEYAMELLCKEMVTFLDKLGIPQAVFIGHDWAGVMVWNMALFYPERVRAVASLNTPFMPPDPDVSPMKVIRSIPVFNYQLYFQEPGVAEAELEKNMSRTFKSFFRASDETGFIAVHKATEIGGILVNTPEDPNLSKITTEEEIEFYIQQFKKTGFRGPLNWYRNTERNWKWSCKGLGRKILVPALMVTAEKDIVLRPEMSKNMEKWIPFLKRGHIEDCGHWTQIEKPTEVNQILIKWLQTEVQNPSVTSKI

[7] = biological target: T3, recombinant rat sEH (Rattus norvegicus, UniProt P80299); assay: fluorescent assay with CMNPC substrate, recombinant rat sEH; assay type: biochemical
T3 sequence (P80299 1-554): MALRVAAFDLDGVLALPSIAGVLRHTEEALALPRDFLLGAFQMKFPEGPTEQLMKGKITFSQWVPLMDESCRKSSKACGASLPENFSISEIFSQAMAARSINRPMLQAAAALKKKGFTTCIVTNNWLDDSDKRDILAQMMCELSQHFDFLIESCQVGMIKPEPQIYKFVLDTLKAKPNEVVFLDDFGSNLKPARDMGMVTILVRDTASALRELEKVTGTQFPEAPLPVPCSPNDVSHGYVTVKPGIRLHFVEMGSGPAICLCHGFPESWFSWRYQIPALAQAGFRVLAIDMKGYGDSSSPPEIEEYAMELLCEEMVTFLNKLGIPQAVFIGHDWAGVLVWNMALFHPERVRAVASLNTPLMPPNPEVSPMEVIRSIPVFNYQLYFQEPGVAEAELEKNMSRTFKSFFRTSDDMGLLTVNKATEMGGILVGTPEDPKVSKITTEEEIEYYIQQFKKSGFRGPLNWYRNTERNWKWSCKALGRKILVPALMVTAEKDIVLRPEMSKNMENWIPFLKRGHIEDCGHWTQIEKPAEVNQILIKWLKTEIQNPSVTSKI

[8] = biological target: T4, human recombinant sEH (Homo sapiens, UniProt P34913); assay: radioactive t-DPPO assay, purified recombinant human sEH; assay type: biochemical
T4 sequence (P34913 1-555): T1 sequence (P34913 1-555)

[9] = biological target: T5, purified human recombinant sEH (Homo sapiens, UniProt P34913); assay type: biochemical
T5 sequence (P34913 1-555): T1 sequence (P34913 1-555)

[10] = biological target: human sEH (human liver cytosol) (Homo sapiens, UniProt P34913); assay: LC/MS assay with 14,15-EET substrate, human liver cytosol; assay type: biochemical
[11] = water solubility determination; conditions: 0.1 M sodium phosphate buffer (pH 7.4), 25°C, 24 hours
[12] = in vivo; conditions: female, Labrador retriever, dog, iv
[13] = in vivo; conditions: female, Labrador retriever, dog, po, 0.3 mg/kg
[14] = physchem; conditions: 25 °C, pH 7.4, aqueous buffer, thermodynamic from solid

logP at 24 h [1]	Structure (SMILES)	AUC [2]	half-life [2]	IC50 [6]	IC50 [7]	IC50 [8]	C24/IC50 (ratio of blood concentration over the IC50 with recombinant human sEH after 24 hour) ([2]; oral 0.3 mg/kg cassette dosing)	also measured
2.6	CCOCCOCCOCCCCCNC(=O)NC12CC3CC(CC(C3)C1)C2 [compound 3, 1-adamantan-1-yl-3-{5-[2-(2-ethoxyethoxy)ethoxy]pentyl}urea]	0.04 µM·h	1 h					clearance [3]: 96.7 mL/min/kg; half-life [3]: 9.6 ± 1.8 min; AUC [4]: 0.03 µM·h; Cmax [4]: 20 ± 10 nM; Tmax [4]: 0.2 ± 0.1 h; half-life [4]: 1.7 ± 1 h
	CC(=O)N1CCC(NC(=O)Nc2ccc(OC(F)(F)F)cc2)CC1 [compound 24]							Water solubility [11]: 51 µg/mL; LogP (pH 7.4) ([1]; octanol / 0.1 M sodium phosphate buffer at pH 7.4): 2.3; T1/2 (terminal half-life) ([2]; oral 0.3 mg/kg cassette dosing, n=1, non-compartmental): >24 h
3	O=C(O)CCCCCCCCCCCNC(=O)NC12CC3CC(CC(C3)C1)C2 [compound 1, 12-(3-adamantane-1-yl-ureido)-dodecanoic acid]							
	O=C(Nc1ccc(Cl)cc1)Nc1ccc(Cl)c(Cl)c1 [compound 74, triclocarban, reference compound]	0.03 µM·h	0.5 h				<0.1	
	CC(=O)N1CCC(NC(=O)NC2CCCCCC2)CC1 [compound 31, 1-cycloheptyl-3-(1-acetylpiperidin-4-yl) urea]	3.67 µM·h	5.2 h	12 nM	7 nM	300 nM	1.0	IC50 ([5]; IC50, CMNPC, Human): 28 nM
	CC(=O)N1CCC(NC(=O)NC23CC4CC(CC(C4)C2)C3)CC1 [compound 14, N-(1-acetylpiperidin-4-yl)-N’-(adamant-1-yl) urea]							clearance [12]: 40 mL/min/kg; half-life [12]: 0.6 ± 0.1 h; Cmax [13]: 80 ± 30 nM; Tmax [13]: 1 ± 0.7 h; half-life [13]: 1.7 ± 0.4 h; solubility at 24 h [14]: 490 µg/mL (≈ 1530 µM)
	COC(=O)c1ccc(NC(=O)NC23CC4CC(CC(C4)C2)C3)cc1O [compound 62, 4-(3-adamantane-1-yl-ureido)-2-hydroxyl-benzoic acid methyl ester]	0.21 µM·h		10 nM	8 nM	6 nM	0.7	IC50 [5]: 3 nM

Structure (SMILES)	logP at 24 h [1]	AUC [2]	half-life [2]	IC50 [6]	IC50 [7]	IC50 [8]	C24/IC50 (ratio of blood concentration over the IC50 with recombinant human sEH after 24 hour) ([2]; oral 0.3 mg/kg cassette dosing)	also measured
CS(=O)(=O)N1CCC(NC(=O)Nc2ccc(OC(F)(F)F)cc2)CC1 [compound 27, 1-(1-methylsulfonyl-piperidin-4-yl)-3-(4-trifluoromethoxy-phenyl)-urea]	1.9	28.3 µM·h	> 24 h	5 nM	9 nM	26 nM		IC50 ([5]; IC50, CMNPC, Human, purified recombinant enzyme at […]): 3 nM; IC50 ([9]; IC50 on human sEH in buffer, buffer): 150 nM; IC50 ([9]; IC50 on human sEH incubated in sEH depleted canine liver cytosol, sEH depleted canine liver cytosol supplemented with purified human recombinant sEH): 120 nM; IC50 [10]: 26 nM
